Biological target: T1, human LPA1 (Homo sapiens, UniProt Q92633)
T1 construct: expressed in transfected cells; host or cells: Chinese hamster ovary (CHO) cells
Test: LPA1 functional antagonist assay (LPA-induced calcium flux)
Format: cell-based
Conditions: CHO cells overexpressing human LPA1, 10 nM LPA, read-out: hLPA1 IC50
Procedure: The effectiveness of compounds of the present invention as LPA1 inhibitors can be determined in an LPA1 functional antagonist assay as follows:
Chinese hamster ovary cells overexpressing human LPA1 were plated overnight (15,000 cells/well) in poly-D-lysine coated 384-well microplates (Greiner bio-one, Cat #781946) in DMEM/F12 medium (Gibco, Cat #11039). Following overnight culture, cells were loaded with calcium indicator dye (AAT Bioquest Inc, Cat #34601) for 30 minutes at 37° C. The cells were then equilibrated to room temperature for 30 minutes before the assay. Test compounds solubilized in DMSO were transferred to 384 well non-binding surface plates (Corning, Cat #3575) using the Labcyte Echo acoustic dispense and diluted with assay buffer [1×HBSS with calcium/magnesium (Gibco Cat #14025-092), 20 mM HEPES (Gibco Cat #15630-080) and 0.1% fatty acid free BSA (Sigma Cat #A9205)] to a final concentration of 0.5% DMSO. Diluted compounds were added to the cells by FDSS6000 (Hamamatsu) at final concentrations ranging from 0.08 nM to 5 μM. and were then incubated for 20 min at room temperature at which time LPA (Avanti Polar Lipids Cat #857130C) was added at final concentrations of 10 nM to stimulate the cells. The compound IC50 value was defined as the concentration of test compound which inhibited 50% of the calcium flux induced by LPA alone. IC50 values were determined by fitting data to a 4-parameter logistic equation (GraphPad Prism, San Diego Calif.).

T1 sequence (Q92633 whole entry): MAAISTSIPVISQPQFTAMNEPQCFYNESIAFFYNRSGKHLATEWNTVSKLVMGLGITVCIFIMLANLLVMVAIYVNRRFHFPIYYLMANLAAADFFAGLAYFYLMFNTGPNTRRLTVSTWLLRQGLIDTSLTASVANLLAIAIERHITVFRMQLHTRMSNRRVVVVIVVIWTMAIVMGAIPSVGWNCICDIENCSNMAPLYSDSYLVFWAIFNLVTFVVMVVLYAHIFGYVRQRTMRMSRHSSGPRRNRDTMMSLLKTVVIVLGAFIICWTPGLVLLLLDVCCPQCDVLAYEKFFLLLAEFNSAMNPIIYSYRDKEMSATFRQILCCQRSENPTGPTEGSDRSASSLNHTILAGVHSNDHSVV

Row | IC50 | SMILES
1 | 0.061 µM | CCc1nc(-c2cnn(C)c2CNc2nccc(OCCOC)n2)ncc1O[C@H]1CCC[C@H](C(=O)O)C1 [Example 27, (1S,3S)-3-((4-ethyl-2-(5-(((4-(2-methoxyethoxy)pyrimidin-2-yl)amino)methyl)-1-methyl-1H-pyrazol-4-yl)pyrimidin-5-yl)oxy)cyclohexane-1-carboxylic acid]
2 | 0.023 µM | CCOc1ccnc(NCc2c(-c3ncc(O[C@H]4CCC[C@H](C(=O)O)C4)cn3)cnn2C)n1 [Example 28, (1S,3S)-3-((2-(5-(((4-ethoxypyrimidin-2-yl)amino)methyl)-1-methyl-1H-pyrazol-4-yl)pyrimidin-5-yl)oxy)cyclohexane-1-carboxylic acid]
3 | 0.151 µM | CCOc1ccnc(N(C)Cc2c(-c3ncc(O[C@H]4CCC[C@H](C(=O)O)C4)cn3)cnn2C)n1 [Example 29]
4 | 0.021 µM | Cc1nc(-c2cnn(C)c2CNc2nccc(OCC(C)F)n2)ncc1O[C@H]1CCC[C@H](C(=O)O)C1 (stereo partly drawn) [Example 33, (1S,3S)-3-((2-(5-(((4-(2-fluoropropoxy)pyrimidin-2-yl)amino)methyl)-1-methyl-1H-pyrazol-4-yl)-4-methylpyrimidin-5-yl)oxy)cyclohexane-1-carboxylic acid]
5 | 0.078 µM | COCCOc1ccnc(NCc2c(-c3ncc(O[C@H]4CCC[C@H](C(=O)O)C4)c(C)n3)cnn2C)n1 [Example 34, (1S,3S)-3-((2-(5-(((4-(2-methoxyethoxy)pyrimidin-2-yl)amino)methyl)-1-methyl-lH-pyrazol-4-yl)-4-methylpyrimidin-5-yl)oxy)cyclohexane-1-carboxylic acid]
6 | 0.207 µM | CCc1ccnc(NCc2c(-c3ncc(O[C@H]4CCC[C@H](C(=O)O)C4)c(C)n3)cnn2C)n1 [Example 35, (1S,3S)-3-((2-(5-(((4-ethylpyrimidin-2-yl)amino)methyl)-1-methyl-1H-pyrazol-4-yl)-4-methylpyrimidin-5-yl)oxy)cyclohexane-1-carboxylic acid]
7 | 0.027 µM | COCCCOc1ccnc(NCc2c(-c3ncc(O[C@H]4CCC[C@H](C(=O)O)C4)c(C)n3)cnn2C)n1 [Example 36, (1S,3S)-3-((2-(5-(((4-(3-methoxypropoxy)pyrimidin-2-yl)amino)methyl)-1-methyl-1H-pyrazol-4-yl)-4-methylpyrimidin-5-yl)oxy)cyclohexane-1-carboxylic acid]
8 | 0.013 µM | CCCNc1nc(NCc2c(-c3ncc(O[C@H]4CCC[C@H](C(=O)O)C4)c(C)n3)cnn2C)ncc1F [Example 37, (1S,3S)-3-((2-(5-(((5-fluoro-4-(propylamino)pyrimidin-2-yl)amino)methyl)-1-methyl-1H-pyrazol-4-yl)-4-methylpyrimidin-5-yl)oxy)cyclohexane-1-carboxylic acid]
9 | 0.041 µM | CCNc1nc(NCc2c(-c3ncc(O[C@H]4CCC[C@H](C(=O)O)C4)c(C)n3)cnn2C)ncc1F [Example 38, (1S,3S)-3-((2-(5-(((4-(ethylamino)-5-fluoropyrimidin-2-yl)amino)methyl)-1-methyl-1H-pyrazol-4-yl)-4-methylpyrimidin-5-yl)oxy)cyclohexane-1-carboxylic acid]

Row | SMILES | IC50
10 | Cc1nc(-c2cnn(C)c2CNc2nccc(OC3CC(F)(F)C3)n2)ncc1O[C@H]1CCC[C@H](C(=O)O)C1 [Example 31, (1S,3S)-3-((2-(5-(((4-(3,3-difluorocyclobutoxy)pyrimidin-2-yl)amino)methyl)-1-methyl-1H-pyrazol-4-yl)-4-methylpyrimidin-5-yl)oxy)cyclohexane-1-carboxylic acid] | 0.122 µM
11 | Cc1nc(-c2cnn(C)c2CNc2ccnc(OC3CC(F)(F)C3)n2)ncc1O[C@H]1CCC[C@H](C(=O)O)C1 [Example 32, (1S,3S)-3-((2-(5-(((2-(3,3-difluorocyclobutoxy)pyrimidin-4-yl)amino)methyl)-1-methyl-1H-pyrazol-4-yl)-4-methylpyrimidin-5-yl)oxy)cyclohexane-1-carboxylic acid] | 0.619 µM

Source: US11312706B2, “Cyclohexyl acid pyrazole azines as LPA antagonists” (BRISTOL-MYERS SQUIBB COMPANY, priority 2017, dated 2022)
